Measurements: patent US8952024B2, “Herbicidal pyrimidone derivatives” (E I du Pont de Nemours and Company, priority 2009, dated 2015)

Tests used:
Format in all cases: in vivo
[1] = test system: winter barley (Hordeum vulgare); assay: Test B postemergence plant response; conditions: for Plant response rating, Barley: Postemergence
Summary of the method: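 Visual ratings from 0 (no effect) to 100 (complete control), made against controls 13–15 days after treatment, kept in a greenhouse. Compounds were applied postemergence to potted plants at the 1- to 4-leaf stage (2–18 cm).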

[2] = test system: pigweed (Amaranthus retroflexus); assay: Test A pre-/postemergence plant response
Summary of the method: (§1)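 Injury was scored visually after roughly ten days against untreated controls, 0 = no effect, 100 = complete control. Test chemicals in a surfactant-containing non-phytotoxic solvent were sprayed either onto soil preemergence or onto one- to two-leaf, 2–10 cm plants postemergence.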

[3] = test system: barnyardgrass (Echinochloa crus-galli); assay: Test A pre-/postemergence plant response
Summary of the method: as §1

corn (Zea mays) = assay: Test A pre-/postemergence plant response
Summary of the method: as §1

[4] = test system: giant foxtail (Setaria faberii); assay: Test A pre-/postemergence plant response
Summary of the method: as §1

[5] = test system: wheat (Triticum aestivum); assay: Test A pre-/postemergence plant response
Summary of the method: as §1

[6] = test system: morningglory (Ipomoea spp.); assay: Test A pre-/postemergence plant response
Summary of the method: as §1

[7] = test system: velvetleaf (Abutilon theophrasti); assay: Test A pre-/postemergence plant response
Summary of the method: as §1

[8] = test system: large crabgrass (Digitaria sanguinalis); assay: Test A pre-/postemergence plant response
Summary of the method: as §1

[9] = test system: barnyardgrass (Echinochloa crus-galli); assay: Test B flooded paddy test
Summary of the method: (§2)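 Visual scores run from 0 (no effect) to 100 (complete control), assigned by comparison with controls 13 to 15 days after treatment. Test compounds went straight into water standing 3 cm above the soil, around plants at the 2-leaf stage kept in a greenhouse.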

[10] = test system: umbrella sedge (Cyperus difformis); assay: Test B flooded paddy test
Summary of the method: as §2

[11] = test system: ducksalad (Heteranthera limosa); assay: Test B flooded paddy test
Summary of the method: as §2

rice (Oryza sativa) = assay: Test B flooded paddy test
Summary of the method: as §2

[12] = Postemergence, 125 g ai/ha, 0 to 100 scale where 0 is no effect and 100 is complete control
[13] = Postemergence, 500 g ai/ha, 0 to 100 scale, 0 = no effect, 100 = complete control, approx. ten days
[14] = Preemergence, 125 g ai/ha, 0 to 100 scale, 0 = no effect, 100 = complete control
[15] = Preemergence, 500 g ai/ha, visual injury, 0 to 100 scale (0 no effect, 100 complete control), approx. ten days
[16] = Preemergence, 500 g ai/ha, 0 to 100 scale, 0 = no effect, 100 = complete control
[17] = Flood (flooded paddy test), 125 g ai/ha, scale 0 to 100, 0 is no effect, 100 is complete control, 13 to 15 days
[18] = Flood, 31 g ai/ha, scale 0 to 100 (0 no effect, 100 complete control)

How did the “Barley plant response rating (0 to 100 scale)” value ([1]; 62 g ai/ha, postemergence, 0 is no effect, 100 is complete control, 13 to 15 days) turn out when Cc1ccc(F)cc1-n1c(-c2cccc(Cl)c2)ncc(C(=O)C2=C(O)CCCC2=O)c1=O [Compound 157] was run?
Its value is 15.

What about the “Plant response rating, Barley” value ([1]; 31 g ai/ha, 0 to 100 scale (0 no effect, 100 complete control)) of the same molecule?
Its value is 5.

What about the “Plant response rating, Barley” value ([1]; 125 g ai/ha, scale 0 to 100 (0 no effect, 100 complete control)) of the same molecule?
The value was 30.

And the “Plant response rating, Barley” value ([1]; 250 g ai/ha, scale 0 to 100 (0 no effect, 100 complete control), 13 to 15 days)?
The value was 30.

And the “Plant response rating, Pigweed” value [2, 12]?
The value was 90.

What about the “Plant response rating, Pigweed” value [2, 13] of the same molecule?
The value was 100.

And the “Plant response rating, Pigweed” value [2, 14]?
Its value is 0.

And the “Plant response rating, Pigweed” value [2, 15]?
The value was 50.

What about the “Plant response rating, Barnyardgrass” value [3, 12] of the same molecule?
The value was 90.

And the “Plant response rating, Barnyardgrass” value [3, 13]?
The value was 100.

What about the “Plant response rating, Barnyardgrass” value [3, 14] of the same molecule?
The value was 0.

What about the “Plant response rating, Barnyardgrass” value [3, 15] of the same molecule?
Its value is 50.

And the “Plant response rating, Corn” value (corn (Zea mays); [12])?
The value was 0.

What about the “Plant response rating, Corn” value (corn (Zea mays); [13]) of the same molecule?
Its value is 30.

And the “Plant response rating, Corn” value (corn (Zea mays); [14])?
The value was 0.

And the “Plant response rating, Corn” value (corn (Zea mays); [15])?
Its value is 0.

What about the “Plant response rating, Foxtail, Giant” value [4, 12] of the same molecule?
The value was 90.

And the “Plant response rating, Foxtail, Giant” value [4, 13]?
Its value is 100.

And the “Plant response rating, Foxtail, Giant” value [4, 14]?
The value was 10.

What about the “Plant response rating, Foxtail, Giant” value [4, 15] of the same molecule?
Its value is 50.

And the “Plant response rating, Wheat” value [5, 12]?
Its value is 0.

What about the “Plant response rating, Wheat” value [5, 13] of the same molecule?
The value was 0.

And the “Plant response rating, Wheat” value [5, 14]?
The value was 0.

What about the “Plant response rating, Wheat” value [5, 16] of the same molecule?
The value was 0.

And the “Plant response rating, Morningglory” value [6, 12]?
Its value is 10.

What about the “Plant response rating, Morningglory” value [6, 13] of the same molecule?
The value was 30.

What about the “Plant response rating, Morningglory” value [6, 14] of the same molecule?
Its value is 0.

And the “Plant response rating, Morningglory” value [6, 15]?
The value was 0.

What about the “Plant response rating, Velvetleaf” value [7, 12] of the same molecule?
The value was 100.

What about the “Plant response rating, Velvetleaf” value [7, 13] of the same molecule?
Its value is 100.

What about the “Plant response rating, Velvetleaf” value [7, 14] of the same molecule?
The value was 60.

What about the “Plant response rating, Velvetleaf” value [7, 16] of the same molecule?
Its value is 100.

What about the “Plant response rating, Crabgrass, Large” value [8, 12] of the same molecule?
The value was 80.

What about the “Plant response rating, Crabgrass, Large” value [8, 13] of the same molecule?
The value was 100.

What about the “Plant response rating, Crabgrass, Large” value [8, 14] of the same molecule?
The value was 20.

And the “Plant response rating, Crabgrass, Large” value [8, 15]?
Its value is 70.

And the “Plant response rating, Barnyardgrass” value [9, 17]?
Its value is 0.

What about the “Barnyardgrass plant response rating” value [9, 18] of the same molecule?
Its value is 0.

And the “Plant response rating, Sedge, Umbrella” value [10, 17]?
Its value is 75.

And the “Sedge, Umbrella plant response rating” value [10, 18]?
Its value is 40.

And the “Plant response rating, Ducksalad” value [11, 17]?
Its value is 70.

What about the “Ducksalad plant response rating” value [11, 18] of the same molecule?
Its value is 50.

And the “Plant response rating, Rice” value (rice (Oryza sativa); [17])?
Its value is 0.

And the “Rice plant response rating” value (rice (Oryza sativa); [18])?
The value was 0.
